Columns and labels:
LnaB = target: T1, LnaB (Legionella pneumophila, UniProt Q5ZSJ0); experiment: biochemical
T1 construct: gene lpg2527

MavL40-404 = target: T2, MavL40-404 (Legionella pneumophila, UniProt Q5ZSJ1)
T2 construct: gene lpg2526
T2 sequence (Q5ZSJ1 40-404 limits assumed): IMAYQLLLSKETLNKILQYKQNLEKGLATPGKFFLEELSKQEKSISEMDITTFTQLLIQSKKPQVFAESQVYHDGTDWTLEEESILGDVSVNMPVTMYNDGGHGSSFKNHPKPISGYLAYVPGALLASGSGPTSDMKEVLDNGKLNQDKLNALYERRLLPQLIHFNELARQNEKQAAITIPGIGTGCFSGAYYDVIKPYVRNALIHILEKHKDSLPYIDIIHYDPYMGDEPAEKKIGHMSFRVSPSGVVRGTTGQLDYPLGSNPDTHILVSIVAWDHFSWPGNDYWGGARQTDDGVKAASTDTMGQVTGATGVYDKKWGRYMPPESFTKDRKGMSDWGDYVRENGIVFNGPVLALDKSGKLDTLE

T1 sequence (Q5ZSJ0 1-558 limits assumed): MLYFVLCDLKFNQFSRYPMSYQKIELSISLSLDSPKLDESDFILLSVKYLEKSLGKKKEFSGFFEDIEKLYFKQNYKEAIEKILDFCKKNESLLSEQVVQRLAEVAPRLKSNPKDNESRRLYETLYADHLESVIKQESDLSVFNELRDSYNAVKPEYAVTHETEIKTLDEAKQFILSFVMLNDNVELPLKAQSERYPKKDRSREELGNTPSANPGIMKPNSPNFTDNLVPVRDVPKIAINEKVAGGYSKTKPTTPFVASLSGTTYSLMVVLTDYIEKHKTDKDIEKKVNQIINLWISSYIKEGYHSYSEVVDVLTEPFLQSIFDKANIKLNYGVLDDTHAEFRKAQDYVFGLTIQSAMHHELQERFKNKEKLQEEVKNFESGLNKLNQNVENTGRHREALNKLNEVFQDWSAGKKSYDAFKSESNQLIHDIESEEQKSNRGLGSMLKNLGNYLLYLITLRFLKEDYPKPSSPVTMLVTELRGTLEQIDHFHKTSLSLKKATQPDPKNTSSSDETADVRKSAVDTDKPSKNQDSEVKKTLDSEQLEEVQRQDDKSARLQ

With `Nc1ncnc2c1ncn2[C@@H]1O[C@H](COP(=O)(O)OP(=O)(O)OP(=O)(O)O)[C@@H](O)[C@H]1O` [ATP] the Kd (LnaB) was 15.4 ± 4.85 µM.
Molecule `Nc1ncnc2c1ncn2[C@@H]1O[C@H](COP(=O)(O)OP(=O)(O)OC[C@H]2OC(O)[C@H](O)[C@@H]2O)[C@@H](O)[C@H]1O` (some centres unmarked) [ADPR] has a Kd (MavL40-404) of 25 ± 3.24 µM.
